In patent publication US8309718B2, “4-pyrazolyl-N-arylpyrimidin-2-amines and 4-pyrazolyl-N-heteroarylpyrimidin-2-amines as janus kinase inhibitors” (Incyte Corporation, priority 2007, dated 2012):

Molecular target: T1, human JAK2 (Homo sapiens, UniProt O60674)
T1 construct: JAK2 (a.a. 828-1132); His tag (N); made in house; host or cells: insect cells (baculovirus)
Assay: In vitro JAK kinase assay (HTRF, phosphorylation of biotinylated peptide)
Type: biochemical
Details: catalytic domain a.a. 828-1132, 30 μM ATP, 500 nM peptide, room temperature 1 hr; read-out: JAK-2 IC50
In short: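 IC50 from HTRF detection (Eu-Py20 antibody, SA-APC) of biotinylated-peptide phosphorylation (500 nM), run 1 h at RT. Enzyme: N-His human JAK2 kinase domain a.a. 828-1132 from insect cells; ATP 30 μM; buffer 50 mM Tris pH 7.8 with NaCl, DTT, BSA.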

T1 sequence (O60674 828-1132): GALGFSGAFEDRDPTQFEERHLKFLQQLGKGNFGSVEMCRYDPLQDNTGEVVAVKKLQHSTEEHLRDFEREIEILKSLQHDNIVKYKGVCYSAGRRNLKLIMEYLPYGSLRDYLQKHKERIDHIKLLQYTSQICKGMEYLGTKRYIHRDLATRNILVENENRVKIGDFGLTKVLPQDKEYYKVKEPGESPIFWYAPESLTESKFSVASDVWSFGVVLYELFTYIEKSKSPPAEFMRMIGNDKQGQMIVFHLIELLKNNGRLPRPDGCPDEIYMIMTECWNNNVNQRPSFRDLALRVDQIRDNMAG

IC50, < 0.1 µM:
N#CCC(C1CCCC1)n1cc(-c2ccnc(Nc3ccc(C(=O)N4CCC4)cc3)n2)cn1 (racemic) [Example 128, 3-(4-(2-(4-(azetidine-1-carbonyl)phenylamino)pyrimidin-4-yl)-1H-pyrazol-1-yl)-3-cyclopentylpropanenitrile]
COC1CCN(C(=O)c2ccc(Nc3nccc(-c4cnn(C(CC#N)C5CC5)c4)n3)cc2)CC1 (racemic) [Example 263, 3-cyclopropyl-3-(4-(2-(4-(4-methoxypiperidine-1-carbonyl)phenylamino)pyrimidin-4-yl)-1H-pyrazol-1-yl)propanenitrile]
Cn1ccc(S(=O)(=O)Nc2cccc(Nc3nccc(-c4cnn(C(CC#N)C5CCCC5)c4)n3)c2)n1 (racemic) [Example 201, N-(3-(4-(1-(2-cyano-1-cyclopentylethyl)-1H-pyrazol-4-yl)pyrimidin-2-ylamino)phenyl)-1-methyl-1H-pyrazole-3-sulfonamide]
CCOC(=O)N1CCC(NC(=O)c2ccc(Nc3nccc(-c4cnn(C(CC#N)C5CCCC5)c4)n3)cc2)CC1 (racemic) [Example 231, Ethyl 4-(4-(4-(1-(2-cyano-1-cyclopentylethyl)-1H-pyrazol-4-yl)pyrimidin-2-ylamino)benzamido)piperidine-1-carboxylate]
COc1cnc(Nc2ccc(NC(C)=O)cc2)nc1-c1cnn(C(CC#N)C2CCCC2)c1 (racemic) [Example 103, N-(4-(4-(1-(2-cyano-1-cyclopentylethyl)-1H-pyrazol-4-yl)-5-methoxypyrimidin-2-ylamino)phenyl)acetamide]
N#CCC1(n2cc(-c3ccnc(Nc4ccc(N5CCCC5=O)cc4)n3)cn2)CC(C#N)C1 (single isomer, unassigned) [Example 340, 3-(cyanomethyl)-3-[4-(2-{[4-(2-oxopyrrolidin-1-yl)phenyl]amino}pyrimidin-4-yl)-1H-pyrazol-1-yl]cyclobutanecarbonitrile]
CN1CCN(C(=O)c2ccc(Nc3nccc(-c4cnn(C5(CC#N)CC(C#N)C5)c4)n3)cc2)CC1 (single isomer, unassigned) [Example 293, 3-(cyanomethyl)-3-(4-(2-(4-(4-methylpiperazine-1-carbonyl)phenylamino)pyrimidin-4-yl)-1H-pyrazol-1-yl)cyclobutanecarbonitrile]
N#CCC1(n2cc(-c3ccnc(Nc4ccc(C(=O)N5CC[C@H](F)C5)cc4)n3)cn2)CC(C#N)C1 (single isomer, unassigned) [Example 294]
N#CCC1(n2cc(-c3ccnc(Nc4ccc(-c5cnco5)cc4)n3)cn2)CN(S(=O)(=O)C2CC2)C1 [Example 21, 2-(1-(cyclopropylsulfonyl)-3-(4-(2-(4-(oxazol-5-yl)phenylamino)pyrimidin-4-yl)-1H-pyrazol-1-yl)azetidin-3-yl)acetonitrile]
N#CCC1(n2cc(-c3ccnc(Nc4ccc(N5CCCOC5=O)cc4)n3)cn2)CC(C#N)C1 (single isomer, unassigned) [Example 337, 3-(cyanomethyl)-3-[4-(2-{[4-(2-oxo-1,3-oxazinan-3-yl)phenyl]amino}pyrimidin-4-yl)-1H-pyrazol-1-yl]cyclobutanecarbonitrile]
Cc1nccc(-c2cccc(Nc3nccc(-c4cnn(C5(CC#N)CN(S(=O)(=O)C6CC6)C5)c4)n3)c2)n1 [Example 20, 2-(1-(cyclopropylsulfonyl)-3-(4-(2-(3-(2-methylpyrimidin-4-yl)phenylamino)pyrimidin-4-yl)-1H-pyrazol-1-yl)azetidin-3-yl)acetonitrile]
CN(C)S(=O)(=O)Nc1cccc(Nc2nccc(-c3cnn(C(CC#N)C4CCCC4)c3)n2)c1 (racemic) [Example 202, NA-(3-(4-(1-(2-cyano-1-cyclopentylethyl)-1H-pyrazol-4-yl)pyrimidin-2-ylamino)phenyl)-N,N-dimethylsulfamide]
CCS(=O)(=O)N1CCC(CC(CC#N)n2cc(-c3ccnc(Nc4ccc(C(=O)N(C)C)cc4)n3)cn2)CC1 (racemic) [Example 46, 4-(4-(1-(1-cyano-3-(1-(ethylsulfonyl)piperidin-4-yl)propan-2-yl)-1H-pyrazol-4-yl)pyrimidin-2-ylamino)-N,N-dimethylbenzamide]
N#CCC1(n2cc(-c3ccnc(Nc4ccc(-n5cccn5)cc4)n3)cn2)CCN(S(=O)(=O)C2CC2)CC1 [Example 28, 2-(4-(4-(2-(4-(1H-pyrazol-1-yl)phenylamino)pyrimidin-4-yl)-1H-pyrazol-1-yl)-1-(cyclopropylsulfonyl)piperidin-4-yl)acetonitrile]
COc1cnc(Nc2cccc(C(=O)N3CC[C@@H](O)C3)c2)nc1-c1cnn(C(CC#N)C2CC2)c1 (mixture of isomers) [Example 325, 3-cyclopropyl-3-(4-{2-[(3-{[(3R)-3-hydroxypyrrolidin-1-yl]carbonyl}phenyl)amino]-5-methoxypyrimidin-4-yl}-1H-pyrazol-1-yl)propanenitrile]
CN1CCN(C(=O)c2ccc(Nc3nccc(-c4cnn(C(CC#N)C5CC5)c4)n3)cc2)CC1 (racemic) [Example 267, 3-cyclopropyl-3-(4-(2-(4-(4-methylpiperazine-1-carbonyl)phenylamino)pyrimidin-4-yl)-1H-pyrazol-1-yl)propanenitrile]
Cc1nc(-c2ccc(S(=O)(=O)Nc3ccc(Nc4nccc(-c5cnn(C(CC#N)C6CCCC6)c5)n4)cc3)s2)cs1 (racemic) [Example 193, N-(4-(4-(1-(2-cyano-1-cyclopentylethyl)-1H-pyrazol-4-yl)pyrimidin-2-ylamino)phenyl)-5-(2-methylthiazol-4-yl)thiophene-2-sulfonamide]
N#CCC1(n2cc(-c3ccnc(Nc4cccc(-c5nnn[nH]5)c4)n3)cn2)CCN(C(=O)c2ccno2)CC1 (racemic) [Example 14, 2-(4-(4-(2-(3-(1H-tetrazol-5-yl)phenylamino)pyrimidin-4-yl)-1H-pyrazol-1-yl)-1-(isoxazole-5-carbonyl)piperidin-4-yl)acetonitrile]
N#CCC(C1CCCC1)n1cc(-c2ccnc(Nc3cccc(C(=O)N4CCN(c5ncccn5)CC4)c3)n2)cn1 (racemic) [Example 160, 3-cyclopentyl-3-(4-(2-(3-(4-(pyrimidin-2-yl)piperazine-1-carbonyl)phenylamino)pyrimidin-4-yl)-1H-pyrazol-1-yl)propanenitrile]
CCS(=O)(=O)N1CCC(CC(CC#N)n2cc(-c3ccnc(Nc4ccccc4)n3)cn2)CC1 (racemic) [Example 44, 4-(1-(ethylsulfonyl)piperidin-4-yl)-3-(4-(2-(phenylamino)pyrimidin-4-yl)-1H-pyrazol-1-yl)butanenitrile]
N#CCC(C1CCCC1)n1cc(-c2ccnc(Nc3cccc(C(=O)N4CCC(c5ccccn5)C4)c3)n2)cn1 (mixture of isomers) [Example 152, 3-cyclopentyl-3-(4-(2-(3-(3-(pyridin-2-yl)pyrrolidine-1-carbonyl)phenylamino)pyrimidin-4-yl)-1H-pyrazol-1-yl)propanenitrile]
COc1cnc(Nc2ccc(C(=O)N3CCN(C)CC3)cc2)nc1-c1cnn(C(CC#N)C2CCCC2)c1 (racemic) [Example 304, 3-cyclopentyl-3-(4-(5-methoxy-2-(4-(4-methylpiperazine-1-carbonyl)phenylamino)pyrimidin-4-yl)-1H-pyrazol-1-yl)propanenitrile]
N#CCC(C1CCCC1)n1cc(-c2ccnc(Nc3ccc(NC(=O)CN4CCCC4)cc3)n2)cn1 (racemic) [Example 203, N-(4-(4-(1-(2-cyano-1-cyclopentylethyl)-1H-pyrazol-4-yl)pyrimidin-2-ylamino)phenyl)-2-(pyrrolidin-1-yl)acetamide]
Cc1cnc(Nc2ccc(C(=O)N(C)C)cc2)nc1-c1cnn(C(CC#N)CC2CCN(S(=O)(=O)c3ccn(C)n3)CC2)c1 (racemic) [Example 67, 4-(4-(1-(1-cyano-3-(1-(1-methyl-1H-pyrazol-3-ylsulfonyl)piperidin-4-yl)propan-2-yl)-1H-pyrazol-4-yl)-5-methylpyrimidin-2-ylamino)-N,N-dimethylbenzamide]
N#CCC(C1CC1)n1cc(-c2ccnc(Nc3ccc(C(=O)N4CC[C@@H](C#N)C4)cc3)n2)cn1 (mixture of isomers) [Example 264, (3R)-1-(4-(4-(1-(2-cyano-1-cyclopropylethyl)-1H-pyrazol-4-yl)pyrimidin-2-ylamino)benzoyl)pyrrolidine-3-carbonitrile]
CCS(=O)(=O)N1CC(CC#N)(n2cc(-c3ccnc(Nc4ccc(C(=O)N5CCOCC5)cc4)n3)cn2)C1 [Example 255, 2-(1-(ethylsulfonyl)-3-(4-(2-(4-(morpholine-4-carbonyl)phenylamino)pyrimidin-4-yl)-1H-pyrazol-1-yl)azetidin-3-yl)acetonitrile]
N#CCC(C1CCCC1)n1cc(-c2ccnc(Nc3ccc(N4CCCC4=O)cc3)n2)cn1 (racemic) [Example 129, 3-cyclopentyl-3-(4-(2-(4-(2-oxopyrrolidin-1-yl)phenylamino)pyrimidin-4-yl)-1H-pyrazol-1-yl)propanenitrile]
CS(=O)(=O)CS(=O)(=O)Nc1ccc(Nc2nccc(-c3cnn(C(CC#N)C4CCCC4)c3)n2)cc1 (racemic) [Example 184, N-(4-(4-(1-(2-cyano-1-cyclopentylethyl)-1H-pyrazol-4-yl)pyrimidin-2-ylamino)phenyl)-1-(methylsulfonyl)methanesulfonamide]
COc1cnc(Nc2cccc(C(=O)NC3CCOCC3)c2)nc1-c1cnn(C(CC#N)C2CC2)c1 (racemic) [Example 323, 3-({4-[1-(2-cyano-1-cyclopropylethyl)-1H-pyrazol-4-yl]-5-methoxypyrimidin-2-yl}amino)-N-(tetrahydro-2H-pyran-4-yl)benzamide]
